Assay results from patent US9029414B2, “Triterpenoid compounds and methods of use thereof” (Biotechnology Research Corporation, priority 2008, dated 2015).

Legend:
[1] = target: FP receptor (Homo sapiens, UniProt P43088); test: Radioligand competition binding assay, FP; settings: target PGF, compound at 10 μM in duplicate, read-out: % inhibition of control specific binding
Experimental: (§1) DA001 was further evaluated against 32 receptor binding assays. Radioligand competition assays were conducted whereby DA001 was tested at one concentration (10 uM) in duplicate. […] It could compete with the radioligand [^3H] PGE2 binding at the EP1 and EP4 receptors, and weakly competed with the EP2 and FP receptors.
(§2) To determine the targets of DA compounds, the compound was assessed in binding assays for the family of prostanoid receptors. Both compounds were tested at a single concentration (10 μM) in duplicate. DA001 and DA021 inhibit the ligand binding of prostaglandin E2 receptors EP1, EP2 and EP4 and moderately to prostaglandin (PGF) to its receptor (FP), but not prostaglandin I (PGI2), thromoboxane A and prostaglandin D2 to their receptors.

[2] = target: EP4 receptor (Homo sapiens, UniProt P35408); test: Cellular receptor functional assay (cAMP), EP4; format: cell-based; design: expressed in transfected cells; host or cells: CHO cells; settings: for Antagonist effect, cAMP measurement: in presence of PGE2
EP4 receptor, sequence (P35408 whole entry): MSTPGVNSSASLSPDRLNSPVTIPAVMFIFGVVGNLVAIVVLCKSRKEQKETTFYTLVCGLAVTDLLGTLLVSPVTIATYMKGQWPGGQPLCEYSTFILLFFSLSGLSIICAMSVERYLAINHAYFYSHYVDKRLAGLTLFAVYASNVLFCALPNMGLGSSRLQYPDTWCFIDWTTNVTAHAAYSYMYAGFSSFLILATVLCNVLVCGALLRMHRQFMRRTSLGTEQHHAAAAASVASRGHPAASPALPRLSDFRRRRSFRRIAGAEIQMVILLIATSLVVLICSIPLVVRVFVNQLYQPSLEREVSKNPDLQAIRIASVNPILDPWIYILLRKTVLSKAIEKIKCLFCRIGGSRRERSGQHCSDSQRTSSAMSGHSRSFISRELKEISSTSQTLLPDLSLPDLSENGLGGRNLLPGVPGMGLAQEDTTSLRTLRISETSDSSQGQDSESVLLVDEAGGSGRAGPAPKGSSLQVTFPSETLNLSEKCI
Experimental: FIG. 13. […] A: Cellular functional assay for EP2; B: Cellular functional assay for […].
To determine whether the inhibitory effect of DA001 on the ligand binding to EP receptors results from agonist or antagonist activity, DA001 was evaluated at a single concentration (10 μM) on cellular-specific receptor functional assays. Upon ligand binding, the EP receptors are activated which leads to an increase in intracellular cyclic AMP.
DA001 (10 μM) was subjected to ligand binding assay with the human EP1 or EP4 receptor over-expressing CHO cells. Results are expressed as a percent of control specific agonist response [100-(measured specific response/control specific agonist response)×100] obtained in the presence of DA001.
DA001 was evaluated at 6 concentrations in cellular assays assessing receptor function. Upon ligand binding, the EP2 and EP4 receptor is activated which leads to an increase in intracellular cyclic AMP.
DA021 inhibits PGE2 ligand binding to EP1, EP2 and EP4 receptors. To determine whether the inhibitory effect is due to agonist or antagonist activity, DA021 was evaluated and compared at 1 concentration (30 uM) in cellular assays assessing receptor function. Upon ligand binding, the EP receptors are activated which leads to an increase in intracellular cyclic AMP.

[3] = target: T1, EP1 receptor (Homo sapiens, UniProt P34995); test: Radioligand competition binding assay, EP1; settings: EP1, target PGE2; compound at 10 μM in duplicate; read-out: % inhibition of control specific binding
T1 sequence (P34995 1-402): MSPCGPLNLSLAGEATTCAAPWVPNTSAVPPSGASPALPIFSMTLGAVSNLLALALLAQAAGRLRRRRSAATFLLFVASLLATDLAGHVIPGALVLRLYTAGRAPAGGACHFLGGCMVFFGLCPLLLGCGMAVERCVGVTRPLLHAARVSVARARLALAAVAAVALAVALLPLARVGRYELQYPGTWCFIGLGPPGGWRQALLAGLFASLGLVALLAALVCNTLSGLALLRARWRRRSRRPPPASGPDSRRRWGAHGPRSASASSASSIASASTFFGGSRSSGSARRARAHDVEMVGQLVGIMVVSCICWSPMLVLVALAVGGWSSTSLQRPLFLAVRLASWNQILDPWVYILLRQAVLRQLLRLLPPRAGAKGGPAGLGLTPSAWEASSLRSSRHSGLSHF
Experimental: as §1, §2

[4] = tested on: cortical neurons; test: Cortical neuron survival assay against glutamate excitotoxicity (LDH); format: cell-based, Sprague-Dawley rats; settings: 30 μM 24 hrs, glutamate 10-200 μM 20 min; at high concentrations of glutamate
Experimental: Hippocampal neurons/cortical neurons were prepared from embryonic day 18 Sprague-Dawley rats. After the cortices had been removed from the brain, isolated cells were plated onto Poly d-Lysine (PDL) (P0899, Sigma)-coated 48 well plates (150687, NUNC) at a density of 2×10^5 cell per well using Neurobasal Medium (NB) (21103-049, Gibco) with B27 supplement (17504-044, Gibco), penicillin/streptomycin (15140, Gibco) and 1 mM L-glutamine (25030, Gibco). The cell culture was incubated at 37° C. in a humidified atmosphere of 5% CO2 in air. Medium was changed to growth medium (Neurobasal Medium with penicillin/streptomycin and B27 supplement) after 3 hours. Half medium was changed with growth medium every 2-3 days to maintain the cells until day 10 in vitro (DIV 10). Serial dilutions of samples were prepared in growth medium and DMSO was used as vehicle control. For pre-treating assay, half of the medium was removed from wells, and equal amount of diluted samples were replaced. Cells were then incubated for 2 hours at 37° C. in a humidified atmosphere of 5% CO2 in air. […] Afterwards, cells were incubated in growth medium for 18-24 hours and detected with Cytotoxicity Detection Kit (1644793, Roche).
Cortical neurons were pre-treated with DA021 or DA034 and subsequently subjected to varying concentrations of glutamate (10-200 μM). […] LDH release into the medium was then measured.

FP receptor, sequence (P43088 whole entry): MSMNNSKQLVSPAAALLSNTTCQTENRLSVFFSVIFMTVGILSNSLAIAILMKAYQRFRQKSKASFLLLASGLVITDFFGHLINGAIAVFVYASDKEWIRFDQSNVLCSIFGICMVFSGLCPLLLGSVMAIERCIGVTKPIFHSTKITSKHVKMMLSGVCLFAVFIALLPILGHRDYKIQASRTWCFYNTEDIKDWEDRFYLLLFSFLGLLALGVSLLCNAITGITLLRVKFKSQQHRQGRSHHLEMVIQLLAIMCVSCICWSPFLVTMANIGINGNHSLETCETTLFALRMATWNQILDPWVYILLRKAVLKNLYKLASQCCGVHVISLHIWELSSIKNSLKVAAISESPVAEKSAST

## C=C(C)[C@@H]1CC[C@]2(C(=O)O)CC[C@]3(C)C(CC[C@@H]4[C@@]5(C)CC[C@H](O[C@@H]6OC[C@H](O)[C@H](O)[C@H]6O[C@@H]6O[C@@H](C)[C@H](O)[C@@H](O)[C@H]6O)[C@@](C)(CO)[C@@H]5CC[C@]43C)[C@@H]12 (stereo partly drawn) [DA001, 3-O-[α-L-rhamnopyranosyl-(1→2)-α-L-arabinopyranosyl]-3,23-dihydroxy-20(29)-lupen-28-oic acid]
[1]
  inhibition at 10 µM: 27%
[2]; EP4 receptor, 10 μM
  Agonist effect, cAMP measurement: −11%
  Antagonist effect, cAMP measurement: 41%
[2]; inhibition of PGE2-induced cAMP increase, 6 concentrations, read-out: IC50, antagonist effect
  IC50: 20 µM
[3]
  inhibition at 10 µM: 52%

## C=C(C)[C@@H]1CC[C@]2(/C=N/O)CC[C@]3(C)C(CCC4[C@@]5(C)CCC(=O)[C@@](C)(CO)[C@@H]5CC[C@]43C)C12 (stereo partly shown) [DA021]
[1]
  inhibition at 10 µM: 52%
[2]; EP4 receptor, 30 uM
  Antagonist effect, cAMP measurement: 18
[3]
  inhibition at 10 µM: 31%
[4]
  cell death (LDH release) vs DMSO control: significant reduction in cell death

## CC(=O)OC[C@]12CC[C@@H](C3(C)CO3)C1C1CCC3[C@@]4(C)CC[C@H](O)[C@@](C)(CO)[C@@H]4CC[C@@]3(C)[C@]1(C)CC2 (stereo partly shown) [DA034]
[4]
  cell death (LDH release) vs DMSO control: significant reduction in cell death
